Target: T1, HDAC6 (Homo sapiens, UniProt Q9UBN7)
T1 construct: Full length human recombinant HDAC6 protein; made in house
T1 sequence (Q9UBN7 1-1215): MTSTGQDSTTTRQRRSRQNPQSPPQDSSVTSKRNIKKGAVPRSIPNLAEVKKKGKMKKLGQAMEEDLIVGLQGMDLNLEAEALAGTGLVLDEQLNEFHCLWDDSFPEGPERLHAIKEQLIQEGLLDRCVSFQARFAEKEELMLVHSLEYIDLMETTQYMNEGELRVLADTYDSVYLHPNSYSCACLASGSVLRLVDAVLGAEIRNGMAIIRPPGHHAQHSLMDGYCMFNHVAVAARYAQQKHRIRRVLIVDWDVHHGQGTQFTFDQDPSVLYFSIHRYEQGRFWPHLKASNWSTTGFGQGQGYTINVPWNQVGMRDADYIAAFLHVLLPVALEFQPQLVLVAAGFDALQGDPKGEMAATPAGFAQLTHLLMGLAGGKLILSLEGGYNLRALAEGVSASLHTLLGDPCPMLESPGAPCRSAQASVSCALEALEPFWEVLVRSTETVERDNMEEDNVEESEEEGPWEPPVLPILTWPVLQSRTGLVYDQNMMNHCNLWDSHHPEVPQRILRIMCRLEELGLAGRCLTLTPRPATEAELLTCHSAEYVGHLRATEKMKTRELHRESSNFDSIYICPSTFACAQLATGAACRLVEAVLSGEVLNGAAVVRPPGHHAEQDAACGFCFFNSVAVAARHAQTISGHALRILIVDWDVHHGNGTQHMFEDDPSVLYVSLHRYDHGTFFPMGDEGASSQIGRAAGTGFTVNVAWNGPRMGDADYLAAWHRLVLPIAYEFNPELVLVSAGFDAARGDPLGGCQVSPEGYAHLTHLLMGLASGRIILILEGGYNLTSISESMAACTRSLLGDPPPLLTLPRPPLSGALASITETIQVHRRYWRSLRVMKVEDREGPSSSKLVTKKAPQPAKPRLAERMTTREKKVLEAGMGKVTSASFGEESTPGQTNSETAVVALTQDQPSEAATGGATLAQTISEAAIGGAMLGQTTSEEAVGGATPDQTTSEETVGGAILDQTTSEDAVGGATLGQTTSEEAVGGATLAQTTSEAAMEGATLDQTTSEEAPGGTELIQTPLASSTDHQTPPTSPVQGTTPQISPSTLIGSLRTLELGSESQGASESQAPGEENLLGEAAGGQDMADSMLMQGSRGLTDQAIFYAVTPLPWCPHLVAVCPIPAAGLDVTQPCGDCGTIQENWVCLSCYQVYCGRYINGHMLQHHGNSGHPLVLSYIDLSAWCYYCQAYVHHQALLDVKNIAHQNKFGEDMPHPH
Assay: In vitro histone deacetylase assay: enzymatic HDAC6 assay by electrophoretic mobility shift
Assay type: biochemical
Details: full length human recombinant HDAC6 1 nM, 2 μM peptide substrate RHKK(Ac)-NH2, 25° C., 12 concentrations; read-out: Inhibitory Concentration (IC50) against HDAC6, Activity Range
Experimental: The enzymatic HDAC6 assay was performed using electrophoretic mobility shift assay. […] The enzymatic reactions were assembled in 384-well plates in a total volume of 25 μL of a reaction buffer comprising. 100 mM HEPES, pH 7.5, 25 mM KCl, 0.1% bovine serum albumin, 0.01% Triton X-100, 1% DMSO (from compounds), 2 μM of the fluorescently labeled peptide substrate, and enzyme. The enzyme was added at a final concentration of 1 nM. The peptide substrate RHKK(Ac)-NH2 was used. The compounds were tested at 12 concentrations spaced by 3× dilution intervals. Negative control samples (0%-inhibition in the absence of inhibitor) and positive control samples (100%-inhibition) were assembled in replicates of four in each assay plate. The reactions were incubated at 25° C. and quenched by the addition of 45 μL of termination buffer (100 mM HEPES, pH 7.5, 0.01% Triton X-100, 0.05% SDS).
The terminated assay plates were analyzed on LabChip® 3000 microfluidic electrophoresis instrument (Perkin Elmer/Caliper Life Sciences). The fluorescence intensity of the electrophoretically separated de-acetylated product and substrate peptide was measured. Activity in each sample was determined as the product to sum ratio (PSR):P/(S+P), where P is the peak height of the product peptide and S is the peak height of the substrate peptide. Percent inhibition (Pinh) is determined using the following equation:
Pinh=(PSR0%−PSRinh)/(PSR0%−PSR100%)*100, where PSRinh is the product sum ratio in the presence of inhibitor, PSR0% is the average product sum ration in the absence of inhibitor, and PSR100% is the average product sum ratio in 100%-inhibition control samples. The IC50 values of inhibitors were determined by fitting the %-inhibition curves with 4 parameter dose-response models using XLfit 4 software.

| IC50 | Structure (SMILES) |
| --- | --- |
| ≤ 100 nM | O=C(NO)c1ccc2c(c1)OC[C@H](c1ccccc1)N(C(=O)c1ccncc1)C2 [(S)-N-hydroxy-4-isonicotinoyl-3-phenyl-2,3,4,5-tetrahydrobenzo[f][1,4]oxazepine-8-carboxamide] |
| ≤ 100 nM | COC1(C(=O)N2Cc3ccc(C(=O)NO)cc3OC[C@@H]2c2ccccc2)CCCCC1 [(S)-N-hydroxy-4-(1-methoxycyclohexane-1-carbonyl)-3-phenyl-2,3,4,5-tetrahydrobenzo[f][1,4]oxazepine-8-carboxamide] |
| ≤ 100 nM | CC1(C(=O)N2Cc3ccc(C(=O)NO)cc3OC[C@@H]2c2ccccc2)CCOCC1 [(S)-N-hydroxy-4-(4-methyltetrahydro-2H-pyran-4-carbonyl)-3-phenyl-2,3,4,5-tetrahydrobenzo[f][1,4]oxazepine-8-carboxamide] |
| ≤ 100 nM | CC(=O)N1Cc2ccc(C(=O)NO)cc2OC[C@@H]1c1ccccc1 [(S)-4-acetyl-N-hydroxy-3-phenyl-2,3,4,5-tetrahydrobenzo[f][1,4]oxazepine-8-carboxamide] |
| ≤ 100 nM | O=C(NO)c1ccc2c(c1)OC[C@H](c1ccccc1)N(C(=O)C1CCCCC1)C2 [(S)-4-(cyclohexanecarbonyl)-N-hydroxy-3-phenyl-2,3,4,5-tetrahydrobenzo[f][1,4]oxazepine-8-carboxamide] |
| ≤ 100 nM | Cc1ccccc1[C@H]1COc2cc(C(=O)NO)ccc2CN1C(=O)C1CCOCC1 [(S)-N-hydroxy-4-(tetrahydro-2H-pyran-4-carbonyl)-3-(o-tolyl)-2,3,4,5-tetrahydrobenzo[f][1,4]oxazepine-8-carboxamide] |
| ≤ 100 nM | O=C(NO)c1ccc2c(c1)OC[C@H](c1ccccc1)N(C(=O)c1ccc(F)cc1)C2 [(S)-4-(4-fluorobenzoyl)-N-hydroxy-3-phenyl-2,3,4,5-tetrahydrobenzo[f][1,4]oxazepine-8-carboxamide] |
| ≤ 100 nM | O=C(NO)c1ccc2c(c1)OC[C@H](c1ccccc1)N(C(=O)C1CCC1)C2 [(S)-4-(cyclobutanecarbonyl)-N-hydroxy-3-phenyl-2,3,4,5-tetrahydrobenzo[f][1,4]oxazepine-8-carboxamide] |
| ≤ 100 nM | CC(C)C(=O)N1Cc2ccc(C(=O)NO)cc2OC[C@@H]1c1ccccc1 [(S)-N-hydroxy-4-isobutyryl-3-phenyl-2,3,4,5-tetrahydrobenzo[f][1,4]oxazepine-8-carboxamide] |
| ≤ 100 nM | O=C(NO)c1ccc2c(c1)OC[C@H](c1ccc(C(F)(F)F)cc1)N(C(=O)C1CCOCC1)C2 [(S)-N-hydroxy-4-(tetrahydro-2H-pyran-4-carbonyl)-3-(4-(trifluoromethyl)phenyl)-2,3,4,5-tetrahydrobenzo[f][1,4]oxazepine-8-carboxamide] |
| ≤ 100 nM | COC1(C(=O)N2Cc3ccc(C(=O)NO)cc3OC[C@@H]2c2ccccc2)CC1 [(S)-N-hydroxy-4-(1-methoxycyclopropane-1-carbonyl)-3-phenyl-2,3,4,5-tetrahydrobenzo[f][1,4]oxazepine-8-carboxamide] |
| ≤ 100 nM | O=C(NO)c1ccc2c(c1)OC[C@H](c1ccccc1)N(C(=O)c1ccccn1)C2 [(S)-N-hydroxy-3-phenyl-4-picolinoyl-2,3,4,5-tetrahydrobenzo[f][1,4]oxazepine-8-carboxamide] |
| ≤ 100 nM | CO[C@H]1CC[C@H](C(=O)N2Cc3ccc(C(=O)NO)cc3OC[C@@H]2c2ccccc2)CC1 [(S)-N-hydroxy-4-((1r,4S)-4-methoxycyclohexane-1-carbonyl)-3-phenyl-2,3,4,5-tetrahydrobenzo[f][1,4]oxazepine-8-carboxamide] |
| ≤ 100 nM | O=C(NO)c1ccc2c(c1)OC[C@H](c1ccccc1)N(C(=O)c1cccnc1)C2 [(S)-N-hydroxy-4-nicotinoyl-3-phenyl-2,3,4,5-tetrahydrobenzo[f][1,4]oxazepine-8-carboxamide] |
| ≤ 100 nM | O=C(NO)c1ccc2c(c1)OC[C@H](c1ccccc1)N(C(=O)C1CCCC1)C2 [(S)-4-(cyclopentanecarbonyl)-N-hydroxy-3-phenyl-2,3,4,5-tetrahydrobenzo[f][1,4]oxazepine-8-carboxamide] |

Further lines, the compound ahead of its results:

| Structure (SMILES) | IC50 |
| --- | --- |
| O=C(NO)c1ccc2c(c1)OC[C@H](c1ccccc1)N(C(=O)[C@@H]1CCOC1)C2 (single isomer, unassigned) | ≤ 100 nM |
| O=C(NO)c1ccc2c(c1)OC[C@@H](c1ccccc1C(F)(F)F)N(C(=O)C1CCOCC1)C2 (single isomer, unassigned) | > 500 nM |
| O=C(NO)c1ccc2c(c1)OC[C@@H](c1cccc(C(F)(F)F)c1)N(C(=O)C1CCOCC1)C2 (single isomer, unassigned) | 100 to 500 nM |
| CC(=O)N1CCC(C(=O)N2Cc3ccc(C(=O)NO)cc3OC[C@@H]2c2ccccc2)CC1 [(S)-4-(1-acetylpiperidine-4-carbonyl)-N-hydroxy-3-phenyl-2,3,4,5-tetrahydrobenzo[f][1,4]oxazepine-8-carboxamide] | ≤ 100 nM |
| O=C(NO)c1ccc2c(c1)OC[C@@H](c1ccccc1F)N(C(=O)C1CCOCC1)C2 [(R)-3-(2-fluorophenyl)-N-hydroxy-4-(tetrahydro-2H-pyran-4-carbonyl)-2,3,4,5-tetrahydrobenzo[f][1,4]oxazepine-8-carboxamide] | 100 to 500 nM |
| O=C(NO)c1ccc2c(c1)OC[C@@H](c1cccnc1)N(C(=O)C1CCOCC1)C2 (single isomer, unassigned) | ≤ 100 nM |
| O=C(NO)c1ccc2c(c1)OC[C@H](c1ccc(F)cc1)N(C(=O)C1CCOCC1)C2 [(S)-3-(4-fluorophenyl)-N-hydroxy-4-(tetrahydro-2H-pyran-4-carbonyl)-2,3,4,5-tetrahydrobenzo[f][1,4]oxazepine-8-carboxamide] | ≤ 100 nM |
| O=C(NO)c1ccc2c(c1)OC[C@H](c1ccccc1)N(C(=O)[C@H]1CCOC1)C2 (single isomer, unassigned) | ≤ 100 nM |
| O=C(NO)c1ccc2c(c1)OC[C@H](c1ccccc1)N(C(=O)[C@H]1CCCOC1)C2 (single isomer, unassigned) | ≤ 100 nM |
| O=C(NO)c1ccc2c(c1)OC[C@@H](c1ccccc1)N(C(=O)C1CCOCC1)C2 [(R)-N-hydroxy-3-phenyl-4-(tetrahydro-2H-pyran-4-carbonyl)-2,3,4,5-tetrahydrobenzo[f][1,4]oxazepine-8-carboxamide] | > 500 nM |
| O=C(NO)c1ccc2c(c1)OC[C@H](c1ccccc1)N(C(=O)[C@@H]1CCCOC1)C2 (single isomer, unassigned) | ≤ 100 nM |
| O=C(NO)c1ccc2c(c1)OC[C@H](c1ccccc1F)N(C(=O)C1CCOCC1)C2 [(S)-3-(2-fluorophenyl)-N-hydroxy-4-(tetrahydro-2H-pyran-4-carbonyl)-2,3,4,5-tetrahydrobenzo[f][1,4]oxazepine-8-carboxamide] | ≤ 100 nM |
| O=C(NO)c1ccc2c(c1)OC[C@H](c1ccc(Cl)cc1)N(C(=O)C1CCOCC1)C2 [(S)-3-(4-chlorophenyl)-N-hydroxy-4-(tetrahydro-2H-pyran-4-carbonyl)-2,3,4,5-tetrahydrobenzo[f][1,4]oxazepine-8-carboxamide] | ≤ 100 nM |
| O=C(NO)c1ccc2c(c1)OC[C@H](c1ccccc1C(F)(F)F)N(C(=O)C1CCOCC1)C2 (single isomer, unassigned) | ≤ 100 nM |
